Read-outs that look alike come from different tables or passages of the source.
Assays:
[1] = Hepatocyte stability assay, mouse hepatocytes; assay type: in vitro ADME; conditions: for hepatocyte CLint at 1 uM: male, CD-1, mouse, cryopreserved hepatocytes, pH 7.3, 0.7 million cells per mL, 1 uM compound
Procedure: (§1) Cryopreserved mouse hepatocytes were obtained from a pool of 10 or more male CD-1 mice. Cryopreserved human hepatocytes were obtained from a pool of 10 or more donors of mixed gender. Final hepatocyte density was 0.7 million viable cells per mL and test compound concentration was 1 uM with a maximum of 0.01% DMSO. Cryopreserved hepatocytes were thawed, washed, and resuspended in Krebs-Heinslet buffer (pH 7.3). The reaction was initiated by adding the test compound into cell suspension and incubated for 0, […], 1, 1.5, and 2 h, respectively, at 37° C./5% CO2. The reaction was stopped by adding acetonitrile into the incubation mixture. Samples were then mixed, transferred completely to another 96-well plate, and centrifuged. Supernatants were used for HPLC-MS/MS analysis. […] Peak areas corresponding to the test compound were recorded.

[2] = Hepatocyte stability assay, human hepatocytes; assay type: in vitro ADME; conditions: for hepatocyte CLint at 1 uM: both sexes, human, cryopreserved hepatocytes, pH 7.3, 0.7 million cells per mL, 1 uM compound
Procedure: as §1

[3] = biological target: T1, pDNA-PK ser2056 induction in HCT116 spheroids (Homo sapiens, UniProt P78527); experiment: Multicellular tumour spheroid + radiation, pDNA-PK inhibition, HCT116; assay type: cell-based; conditions: 20 Gy, 20% O2
T1 construct: endogenous in cells; host or cells: HCT116 multicellular tumour spheroids
Procedure, shortened: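 HCT116 spheroids (~0.5 mm) in MEM/10% FBS/10 mM glucose, 20% O2, 37 °C, pre-incubated 1 h with compound (10 or 5 μM down to 3.5 nM), irradiated 20 Gy, incubated 2 h more. Cryosections immunostained for pDNA-PK ser2056; EC50 (μM) for 50% reduction of radiation-induced pDNA-PK.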

[4] = Microsomal stability assay, mouse liver microsomes; conditions: for microsomal CLint at 0.1 uM: male, CD-1, mouse, liver microsomes, pH 7.4, Microsomal Stability Mouse Clint, 0.1 mg/mL microsomes, 0.1 uM compound
[5] = Example 7, spheroid, cell line HCT115 [sic], read-out: EC50 (pDNA-PK inhibition, immunohistochemical endpoint)
[6] = Example 9 Study 2, read-out: Spheroid Cell line: HCT116 Immunohistochemical endpoint pDNA-PK inhibition EC50

FC(F)c1ccc2c(O[C@H]3CC[C@@H](Nc4ncccn4)CC3)nc(N3CCOCC3)cc2n1 [Compound 21, N-((1s,4s)-4-((2-(Difluoromethyl)-7-morpholino-1,6-naphthyridin-5-yl)oxy)cyclohexyl)pyrimidin-2-amine]
Hepatocyte Stability (mouse) % rem. 120 min [1]: G (% remaining = 50-75%) | hepatocyte CLint at 1 uM [1]: < 8.2 µL/min/1e6 cells | Hepatocyte Stability (human) % rem. 120 min [2]: G (% remaining = 50-75%) | hepatocyte CLint at 1 uM [2]: < 8.2 µL/min/1e6 cells | EC50 [3, 5]: 10000 to 100000 nM | EC50 [3, 6]: 10000 to 100000 nM

FC(F)c1ccnc2cc(N3CCOCC3)nc(O[C@H]3CC[C@@H](Nc4ncccn4)CC3)c12 [Compound 22, N-((1s,4s)-4-((4-(Difluoromethyl)-7-morpholino-1,6-naphthyridin-5-yl)oxy)cyclohexyl)pyrimidin-2-amine]
Hepatocyte Stability (mouse) % rem. 120 min [1]: F (% remaining = 25-50%) | hepatocyte CLint at 1 uM [1]: > 8.2 µL/min/1e6 cells | Hepatocyte Stability (human) % rem. 120 min [2]: E (% remaining = 0-25%) | hepatocyte CLint at 1 uM [2]: > 8.2 µL/min/1e6 cells | EC50 [3, 5]: 500 to 1000 nM | EC50 [3, 6]: 500 to 1000 nM

c1cnc2cc(N3CCOCC3)nc(O[C@H]3CC[C@@H](Nc4cncnc4)CC3)c2c1 [Compound 28, N-((1s,4s)-4-((7-morpholino-1,6-naphthyridin-5-yl)oxy)cyclohexyl)pyrimidin-5-amine]
Hepatocyte Stability (mouse) % rem. 120 min [1]: E (% remaining = 0-25%) | hepatocyte CLint at 1 uM [1]: > 8.2 µL/min/1e6 cells | Microsomal Stability (mouse) % rem. 60 min [4]: E (% remaining = 0-25%) | microsomal CLint at 0.1 uM [4]: > 116 µL/min/mg | EC50 [3, 5]: 1000 to 10000 nM | EC50 [3, 6]: 1000 to 10000 nM

Cn1cnc(N[C@H]2CC[C@@H](Oc3nc(N4CCOCC4)cc4ncccc34)CC2)n1 [Compound 31, 1-methyl-N-((1s,4s)-4-((7-morpholino-1,6-naphthyridin-5-yl)oxy)cyclohexyl)-1H-1,2,4-triazol-3-amine]
Hepatocyte Stability (mouse) % rem. 120 min [1]: H (% remaining = 75-100%) | hepatocyte CLint at 1 uM [1]: < 8.2 µL/min/1e6 cells | Hepatocyte Stability (human) % rem. 120 min [2]: F (% remaining = 25-50%) | hepatocyte CLint at 1 uM [2]: > 8.2 µL/min/1e6 cells | EC50 [3, 5]: 1000 to 10000 nM | EC50 [3, 6]: 1000 to 10000 nM

COc1ccc(N[C@H]2CC[C@@H](Oc3nc(N4CCOCC4)cc4ncccc34)CC2)nn1 [Compound 38, 6-methoxy-N-((1s,4s)-4-((7-morpholino-1,6-naphthyridin-5-yl)oxy)cyclohexyl)pyridazin-3-amine]
Hepatocyte Stability (mouse) % rem. 120 min [1]: F (% remaining = 25-50%) | hepatocyte CLint at 1 uM [1]: > 8.2 µL/min/1e6 cells | Hepatocyte Stability (human) % rem. 120 min [2]: E (% remaining = 0-25%) | hepatocyte CLint at 1 uM [2]: > 8.2 µL/min/1e6 cells | EC50 [3, 5]: 1000 to 10000 nM | EC50 [3, 6]: 1000 to 10000 nM

Nc1cnc(N[C@H]2CC[C@@H](Oc3nc(N4CCOCC4)cc4ncccc34)CC2)nc1 [Compound 43, N2-((1s,4s)-4-((7-morpholino-1,6-naphthyridin-5-yl)oxy)cyclohexyl)pyrimidine-2,5-diamine]
Hepatocyte Stability (mouse) % rem. 120 min [1]: F (% remaining = 25-50%) | hepatocyte CLint at 1 uM [1]: > 8.2 µL/min/1e6 cells | Hepatocyte Stability (human) % rem. 120 min [2]: G (% remaining = 50-75%) | hepatocyte CLint at 1 uM [2]: < 8.2 µL/min/1e6 cells | EC50 [3, 5]: 10 to 500 nM | EC50 [3, 6]: 10 to 500 nM

CS(=O)(=O)Nc1cnc(N[C@H]2CC[C@@H](Oc3nc(N4CCOCC4)cc4ncccc34)CC2)nc1 [Compound 44, N-(2-(((1s,4s)-4-((7-morpholino-1,6-naphthyridin-5-yl)oxy)cyclohexyl)amino)pyrimidin-5-yl)methanesulfonamide]
Hepatocyte Stability (mouse) % rem. 120 min [1]: G (% remaining = 50-75%) | hepatocyte CLint at 1 uM [1]: < 8.2 µL/min/1e6 cells | Hepatocyte Stability (human) % rem. 120 min [2]: H (% remaining = 75-100%) | hepatocyte CLint at 1 uM [2]: < 8.2 µL/min/1e6 cells | EC50 [3, 5]: 500 to 1000 nM | EC50 [3, 6]: 500 to 1000 nM

Oc1cnc(N[C@H]2CC[C@@H](Oc3nc(N4CCOCC4)cc4ncccc34)CC2)nc1 [Compound 45, 2-(((1s,4s)-4-((7-morpholino-1,6-naphthyridin-5-yl)oxy)cyclohexyl)amino)pyrimidin-5-ol]
Hepatocyte Stability (mouse) % rem. 120 min [1]: F (% remaining = 25-50%) | hepatocyte CLint at 1 uM [1]: > 8.2 µL/min/1e6 cells | Hepatocyte Stability (human) % rem. 120 min [2]: F (% remaining = 25-50%) | hepatocyte CLint at 1 uM [2]: < 8.2 µL/min/1e6 cells | EC50 [3, 5]: 500 to 1000 nM | EC50 [3, 6]: 500 to 1000 nM

NS(=O)(=O)c1cnc(N[C@H]2CC[C@@H](Oc3nc(N4CCOCC4)cc4ncccc34)CC2)nc1 [Compound 46, 2-(((1s,4s)-4-((7-morpholino-1,6-naphthyridin-5-yl)oxy)cyclohexyl)amino)pyrimidine-5-sulfonamide]
Hepatocyte Stability (mouse) % rem. 120 min [1]: G (% remaining = 50-75%) | hepatocyte CLint at 1 uM [1]: < 8.2 µL/min/1e6 cells | Hepatocyte Stability (human) % rem. 120 min [2]: G (% remaining = 50-75%) | hepatocyte CLint at 1 uM [2]: < 8.2 µL/min/1e6 cells | EC50 [3, 5]: 500 to 1000 nM | EC50 [3, 6]: 500 to 1000 nM

Cc1ccnc(N[C@H]2CC[C@@H](Oc3nc(N4CCOCC4)cc4ncccc34)CC2)n1 [Compound 48, 4-methyl-N-((1s,4s)-4-((7-morpholino-1,6-naphthyridin-5-yl)oxy)cyclohexyl)pyrimidin-2-amine]
Hepatocyte Stability (mouse) % rem. 120 min [1]: F (% remaining = 25-50%) | hepatocyte CLint at 1 uM [1]: > 8.2 µL/min/1e6 cells | Hepatocyte Stability (human) % rem. 120 min [2]: F (% remaining = 25-50%) | hepatocyte CLint at 1 uM [2]: < 8.2 µL/min/1e6 cells | EC50 [3, 5]: 500 to 1000 nM | EC50 [3, 6]: 500 to 1000 nM

COc1ccnc(N[C@H]2CC[C@@H](Oc3nc(N4CCOCC4)cc4ncccc34)CC2)n1 [Compound 49, 4-methoxy-N-((1s,4s)-4-((7-morpholino-1,6-naphthyridin-5-yl)oxy)cyclohexyl)pyrimidin-2-amine]
Hepatocyte Stability (mouse) % rem. 120 min [1]: F (% remaining = 25-50%) | hepatocyte CLint at 1 uM [1]: > 8.2 µL/min/1e6 cells | Hepatocyte Stability (human) % rem. 120 min [2]: F (% remaining = 25-50%) | hepatocyte CLint at 1 uM [2]: > 8.2 µL/min/1e6 cells | EC50 [3, 5]: 1000 to 10000 nM | EC50 [3, 6]: 1000 to 10000 nM

NC(=O)c1cnc(N[C@H]2CC[C@@H](Oc3nc(N4CCOCC4)cc4ncccc34)CC2)nc1 [Compound 52, 2-(((1s,4s)-4-((7-morpholino-1,6-naphthyridin-5-yl)oxy)cyclohexyl)amino)pyrimidine-5-carboxamide]
Hepatocyte Stability (mouse) % rem. 120 min [1]: H (% remaining = 75-100%) | hepatocyte CLint at 1 uM [1]: < 8.2 µL/min/1e6 cells | Hepatocyte Stability (human) % rem. 120 min [2]: G (% remaining = 50-75%) | hepatocyte CLint at 1 uM [2]: < 8.2 µL/min/1e6 cells | EC50 [3, 5]: 10 to 500 nM | EC50 [3, 6]: 10 to 500 nM

O=C(N[C@H]1CC[C@@H](Oc2nc(N3CCOCC3)cc3ncccc23)CC1)c1cccnc1 [Compound 115, N-((1s,4s)-4-((7-morpholino-1,6-naphthyridin-5-yl)oxy)cyclohexyl)nicotinamide]
Hepatocyte Stability (mouse) % rem. 120 min [1]: F (% remaining = 25-50%) | hepatocyte CLint at 1 uM [1]: > 8.2 µL/min/1e6 cells | Microsomal Stability (mouse) % rem. 60 min [4]: F (% remaining = 25-50%) | microsomal CLint at 0.1 uM [4]: > 116 µL/min/mg | EC50 [3, 5]: 1000 to 10000 nM | EC50 [3, 6]: 1000 to 10000 nM

O=C(N[C@H]1CC[C@@H](Oc2nc(N3CCOCC3)cc3ncccc23)CC1)c1ccncn1 [Compound 118, N-((1s,4s)-4-((7-morpholino-1,6-naphthyridin-5-yl)oxy)cyclohexyl)pyrimidine-4-carboxamide]
Hepatocyte Stability (mouse) % rem. 120 min [1]: E (% remaining = 0-25%) | hepatocyte CLint at 1 uM [1]: > 8.2 µL/min/1e6 cells | Microsomal Stability (mouse) % rem. 60 min [4]: F (% remaining = 25-50%) | microsomal CLint at 0.1 uM [4]: > 116 µL/min/mg | EC50 [3, 5]: 1000 to 10000 nM | EC50 [3, 6]: 1000 to 10000 nM

O=C(N[C@H]1CC[C@@H](Oc2nc(N3CCOCC3)cc3ncccc23)CC1)c1nccs1 [Compound 135, N-((1s,4s)-4-((7-morpholino-1,6-naphthyridin-5-yl)oxy)cyclohexyl)thiazole-2-carboxamide]
Hepatocyte Stability (mouse) % rem. 120 min [1]: F (% remaining = 25-50%) | hepatocyte CLint at 1 uM [1]: > 8.2 µL/min/1e6 cells | Microsomal Stability (mouse) % rem. 60 min [4]: E (% remaining = 0-25%) | microsomal CLint at 0.1 uM [4]: > 116 µL/min/mg | EC50 [3, 5]: 1000 to 10000 nM | EC50 [3, 6]: 1000 to 10000 nM

Source: patent publication US20240246960A1 (adMare Therapeutics Society, priority 2021, published 2024)
